Common to all, as to experiment: T-cell proliferation assay (stimulation index)
Common to all, as to format: cell-based, human

Assay [1] has as its system TCL C. Conditions: SI>=2 positive. Here is the method: (§1) Synthetic peptides were obtained from JPT technologies. Only peptides containing at least 9 AAs were taken into account, as this is the minimal size for binding to MHC class II molecules and subsequent T-cell recognition (Holland et al, Front Immunol 2013 Jul 1; 4:172.) Synthetic peptides (JPT technologies) identical to the peptides identified in all batches of the HP of example 1 were dissolved in dimethylsulfoxide (Sigma Aldrich) at a concentration of 5.3 mM. The peptides were tested on cow's milk-specific T-cell lines (TCLs) from three different donors. The peptides were tested on cow's milk protein-specific T-cell lines (TCLs) from three infant donors, diagnosed with cow's milk protein allergy. […] Proliferation was determined as described previously (Ruiter et al, Clin Exp Allergy 2006, 36(3):303-310). Stimulation indexes (Sls, ratio between proliferation of allergen/peptide-stimulated and non-stimulated T cells) were calculated and a SI≥2 was considered positive.
(§2) To confirm that the peptides identified in HP were recognized by T cells, synthetic peptides identical to these identified peptides were tested on cow's milk-specific human TCLs. As there was a considered overlap between the identified peptides, five peptides were tested (Table 7) that were identified in all batches and differed with more than 9A from each other. All tested peptides were able to induce proliferation (FIG. 2). […] This was also seen with the in silico prediction data (data not shown). […] As peptide LIV . . . […] SLL (AA #1-32) did, the region containing AA #28-32 (DISLL) was essential for the response of TCL A. Unexpectedly, TCL C recognized peptide LIV . . . AAS (AA #1-27), while the longer peptide containing the same sequence with 5 additional AAs, LIV . . .

Assay [2] has as its system TCL A. To be noted: SI>=2 positive. Here is the method: as §1, §2
Assay [3] concerns cow's milk-specific T-cell lines (TCLs). Conditions: TCLs of three cow's milk allergic donors; SI>=2 positive. Here is the method:
as §1, §2

As for “LIVTQTMKGLDIQKVAGTWYSLAMAAS (beta-lactoglobulin peptide fragment) [SEQ ID NO: 9]”, the T-cell proliferation result was “recognized” in assay [1] and “not able to induce proliferation” in assay [2].

Turning to “LIVTQTMKGLDIQKVAGTWYSLAMAASDISLL (beta-lactoglobulin peptide fragment) [SEQ ID NO: 11]”, the T-cell proliferation result in assay [1] was “not able to induce a proliferative response”; in assay [2] it was “did”.

“TMKGLDIQKVAGTWYSLAMAASDISLLDAQ (beta-lactoglobulin peptide fragment) [SEQ ID NO: 4]”: the “T-cell proliferation / reactivity” value in assay [3] is recorded as “reactivity of every cell line was covered”.

(Values after patent US20210227868A1, “Formula with specific beta-lactoglobulin peptides” (N.V. Nutricia, priority 2018, published 2021).)
